Legend:
Test in all cases: Kinase profiling
Format in all cases: biochemical
CDK5/p35NCK = target: T1, CDK5/p35NCK (Homo sapiens, UniProt Q00535)
T1 construct: purchased ProQinase (Freiburg, Germany)
Protocol: (§1) The analysis was performed by ProQinase (Freiburg, Germany).

HIPK4 = target: T2, HIPK4 (Homo sapiens, UniProt Q8NE63)
T2 construct: purchased ProQinase (Freiburg, Germany)
T2 sequence (Q8NE63 1-616): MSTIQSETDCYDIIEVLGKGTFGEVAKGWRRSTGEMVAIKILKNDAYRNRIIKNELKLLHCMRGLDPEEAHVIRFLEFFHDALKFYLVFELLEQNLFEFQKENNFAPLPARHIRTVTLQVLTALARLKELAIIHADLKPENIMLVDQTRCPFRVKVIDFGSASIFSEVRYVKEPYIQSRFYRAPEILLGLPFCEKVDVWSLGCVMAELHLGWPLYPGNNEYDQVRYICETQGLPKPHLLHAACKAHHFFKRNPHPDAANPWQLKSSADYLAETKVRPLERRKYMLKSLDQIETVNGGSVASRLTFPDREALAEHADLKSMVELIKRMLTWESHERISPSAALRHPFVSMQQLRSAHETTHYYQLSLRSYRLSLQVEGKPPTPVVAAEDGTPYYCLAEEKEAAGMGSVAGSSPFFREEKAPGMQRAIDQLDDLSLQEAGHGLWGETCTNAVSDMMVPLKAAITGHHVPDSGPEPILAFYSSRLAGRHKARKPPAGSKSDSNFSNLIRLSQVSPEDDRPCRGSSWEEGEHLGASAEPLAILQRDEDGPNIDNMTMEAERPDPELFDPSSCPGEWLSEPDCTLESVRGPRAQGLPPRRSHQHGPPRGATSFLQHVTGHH
Protocol: as §1

MKK4 = target: T3, MKK4 (Homo sapiens, UniProt P45985)
T3 construct: purchased ProQinase (Freiburg, Germany)
T3 sequence (P45985 1-399): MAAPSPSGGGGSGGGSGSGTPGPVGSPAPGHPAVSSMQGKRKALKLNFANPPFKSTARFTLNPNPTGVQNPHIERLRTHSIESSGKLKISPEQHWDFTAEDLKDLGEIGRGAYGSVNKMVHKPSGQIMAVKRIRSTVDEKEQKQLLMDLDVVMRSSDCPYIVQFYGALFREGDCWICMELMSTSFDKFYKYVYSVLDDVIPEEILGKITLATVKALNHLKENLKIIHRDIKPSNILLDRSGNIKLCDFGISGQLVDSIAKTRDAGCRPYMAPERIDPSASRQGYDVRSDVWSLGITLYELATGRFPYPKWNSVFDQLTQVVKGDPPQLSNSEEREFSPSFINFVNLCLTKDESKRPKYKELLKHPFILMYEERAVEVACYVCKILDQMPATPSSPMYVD
Protocol: as §1

NLK = target: T4, NLK (Homo sapiens, UniProt Q9UBE8)
T4 construct: purchased ProQinase (Freiburg, Germany)
T4 sequence (Q9UBE8 1-527): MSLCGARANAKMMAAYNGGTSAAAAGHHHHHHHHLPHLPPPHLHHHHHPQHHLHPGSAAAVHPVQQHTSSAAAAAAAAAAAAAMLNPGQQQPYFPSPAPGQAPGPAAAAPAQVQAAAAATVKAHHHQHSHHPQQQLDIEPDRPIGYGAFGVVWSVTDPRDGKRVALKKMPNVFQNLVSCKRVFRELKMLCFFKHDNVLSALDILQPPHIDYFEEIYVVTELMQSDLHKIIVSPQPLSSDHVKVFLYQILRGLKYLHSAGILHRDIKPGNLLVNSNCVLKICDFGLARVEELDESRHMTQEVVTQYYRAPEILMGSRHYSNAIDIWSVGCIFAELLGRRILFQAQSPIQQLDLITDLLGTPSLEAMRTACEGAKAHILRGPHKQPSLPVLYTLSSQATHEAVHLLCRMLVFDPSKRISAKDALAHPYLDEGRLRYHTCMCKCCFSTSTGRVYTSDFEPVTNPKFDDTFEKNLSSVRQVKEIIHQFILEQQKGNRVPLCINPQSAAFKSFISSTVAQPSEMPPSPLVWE
Protocol: as §1

PRKG1 = target: T5, PRKG1 (Homo sapiens, UniProt Q13976)
T5 construct: purchased ProQinase (Freiburg, Germany)
T5 sequence (Q13976 1-671): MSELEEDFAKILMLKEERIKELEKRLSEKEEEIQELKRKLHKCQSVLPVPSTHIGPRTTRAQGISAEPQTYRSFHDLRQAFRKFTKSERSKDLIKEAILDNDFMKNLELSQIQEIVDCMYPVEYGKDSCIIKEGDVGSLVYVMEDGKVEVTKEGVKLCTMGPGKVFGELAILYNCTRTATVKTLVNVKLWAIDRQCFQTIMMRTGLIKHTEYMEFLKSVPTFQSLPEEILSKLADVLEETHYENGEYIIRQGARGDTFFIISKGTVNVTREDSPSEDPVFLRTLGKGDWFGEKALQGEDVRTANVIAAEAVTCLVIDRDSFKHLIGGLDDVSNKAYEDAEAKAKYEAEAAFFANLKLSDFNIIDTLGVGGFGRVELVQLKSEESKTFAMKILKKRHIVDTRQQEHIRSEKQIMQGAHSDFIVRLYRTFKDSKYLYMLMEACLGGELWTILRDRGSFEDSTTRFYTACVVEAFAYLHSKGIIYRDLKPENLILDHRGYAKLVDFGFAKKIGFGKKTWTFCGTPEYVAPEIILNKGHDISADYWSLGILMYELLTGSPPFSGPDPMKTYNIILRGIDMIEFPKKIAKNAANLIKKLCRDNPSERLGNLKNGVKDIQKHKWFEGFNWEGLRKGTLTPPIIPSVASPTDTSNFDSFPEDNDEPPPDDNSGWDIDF
Protocol: as §1

SNK = target: T6, SNK (Homo sapiens, UniProt Q9NYY3)
T6 construct: purchased ProQinase (Freiburg, Germany)
T6 sequence (Q9NYY3 whole entry): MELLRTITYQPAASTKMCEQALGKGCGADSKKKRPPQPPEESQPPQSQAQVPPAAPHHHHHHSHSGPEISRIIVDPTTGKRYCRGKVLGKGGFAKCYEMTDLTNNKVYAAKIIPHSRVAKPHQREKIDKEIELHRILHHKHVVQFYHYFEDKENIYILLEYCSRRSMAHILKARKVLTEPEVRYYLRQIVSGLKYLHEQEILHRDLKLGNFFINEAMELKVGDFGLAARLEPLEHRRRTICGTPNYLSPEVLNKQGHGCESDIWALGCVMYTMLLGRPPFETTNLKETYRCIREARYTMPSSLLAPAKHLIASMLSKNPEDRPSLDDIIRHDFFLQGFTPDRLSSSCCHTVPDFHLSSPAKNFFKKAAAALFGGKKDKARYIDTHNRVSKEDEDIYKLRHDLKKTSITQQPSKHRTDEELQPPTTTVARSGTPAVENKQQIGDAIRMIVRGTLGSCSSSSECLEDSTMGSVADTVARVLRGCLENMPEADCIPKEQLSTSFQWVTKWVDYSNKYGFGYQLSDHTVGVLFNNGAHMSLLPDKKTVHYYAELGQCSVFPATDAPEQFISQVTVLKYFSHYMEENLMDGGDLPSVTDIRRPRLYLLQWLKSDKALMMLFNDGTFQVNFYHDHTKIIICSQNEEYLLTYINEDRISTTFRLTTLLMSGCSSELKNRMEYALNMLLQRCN
Protocol: as §1

T1 sequence (Q00535 whole entry): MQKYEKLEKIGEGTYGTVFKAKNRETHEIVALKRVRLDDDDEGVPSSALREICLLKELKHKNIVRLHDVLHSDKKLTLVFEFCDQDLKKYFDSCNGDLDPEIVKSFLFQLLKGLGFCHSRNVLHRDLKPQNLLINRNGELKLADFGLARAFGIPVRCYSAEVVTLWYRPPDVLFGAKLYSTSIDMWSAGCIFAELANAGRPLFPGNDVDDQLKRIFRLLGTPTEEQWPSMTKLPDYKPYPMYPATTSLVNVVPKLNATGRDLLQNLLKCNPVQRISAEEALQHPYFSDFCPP
T1 sequence (Q15078 whole entry partner): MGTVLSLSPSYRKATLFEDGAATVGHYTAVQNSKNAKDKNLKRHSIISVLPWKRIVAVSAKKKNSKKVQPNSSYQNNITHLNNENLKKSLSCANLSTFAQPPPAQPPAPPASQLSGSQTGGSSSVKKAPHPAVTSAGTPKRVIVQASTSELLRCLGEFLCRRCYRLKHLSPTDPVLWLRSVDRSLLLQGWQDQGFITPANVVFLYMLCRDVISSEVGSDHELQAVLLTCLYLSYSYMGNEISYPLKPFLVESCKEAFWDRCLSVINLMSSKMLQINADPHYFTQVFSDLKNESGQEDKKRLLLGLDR

SMILES	Residual activity (CDK5/p35NCK; 1.0E-05 M)	Residual activity (CDK5/p35NCK; 1.0E-06 M)	Residual activity (HIPK4; 1.0E-05 M)	Residual activity (HIPK4; 1.0E-06 M)	Residual activity (MKK4; 1.0E-05 M)	Residual activity (MKK4; 1.0E-06 M)	Residual activity (NLK; 1.0E-05 M)	Residual activity (NLK; 1.0E-06 M)	Residual activity (PRKG1; 1.0E-05 M)	Residual activity (PRKG1; 1.0E-06 M)	Residual activity (SNK; 1.0E-05 M)	Residual activity (SNK; 1.0E-06 M)
O=C(Cc1ccccc1)Nc1ccc(F)c(Nc2ccc3c(c2)CCCCC3=O)c1 [Compound 100]	93 % of control	105 % of control	84 % of control	92 % of control	110 % of control	94 % of control	96 % of control	96 % of control	96 % of control	120 % of control	90 % of control	102 % of control
O=C(Nc1ccc(F)c(Nc2ccc3c(c2)CCCCC3=O)c1)c1cccc(F)c1 [Compound 109]	101 % of control	95 % of control	91 % of control	95 % of control	111 % of control	96 % of control	91 % of control	97 % of control	90 % of control	113 % of control	92 % of control	94 % of control

Source: paper PMC9030254, “Target Hopping from Protein Kinases to PXR: Identification of Small-Molecule Protein Kinase Inhibitors as Selective Modulators of Pregnane X Receptor from TüKIC Library” (Cells, 2022)
